From EP1935986B1, “Luminogenic and fluorogenic compounds and methods to detect molecules or conditions” (priority 2005, dated 2006)

Legend:
[1] = tested on: thermostable luciferase (Luc 146-1H2); assay: Thermostable luciferase reaction with luciferin derivatives: light readings; assay type: biochemical
Description: (§1) This stock was used to produce enzyme stock solution having of 200 µg/ml enzyme solution in 1 mg/ml BSA, 200 mM HEPES buffer, pH 8.0, 20 mM MgCl2.
(§2) Solutions were made using a 1 M DTT solution, pH adjusted to 8.0, a 20 mM Coenzyme A solution in water (both described in examples above), a 100 mM ATP solution and water to create the following solutions: Sol'A, 100 µM ATP; Sol'B, 100 µM ATP, 4 mM Coenzyme A; Sol'n C, 100 µM ATP, 400 mM DTT, and; Sol'n D, 100 µM ATP, 4 mM Coenzyme A and 400 mM DTT.
The following reactions were prepared (Table 47) Table 47
(§3) After assembly, the reactions were initiated by addition of 25 µl of the thermostable luciferase stock solution above and mixing the tube contents. A 50 µl sample was immediately removed and placed in a luminometer tube and the light read and the tube then replaced in a tube rack at room temperature. While the light reading was being taken, a 5 µl sample of the remaining reaction (which was kept at room temperature) was diluted into 495 µl of 50 mM BisTris, pH 6.5, 1 mg/ml BSA, 1 mM EDTA prechilled to 4°C and the tube mixed and placed on ice. The light produced by the samples in the luminometer tubes were re-read at 20, 40, 60, 90 and 120 minutes post enzyme addition. Additional 5 µl samples were taken and diluted as above at 60 and 120 minutes post enzyme addition. Once all these readings and samples were taken, 50 µl of the diluted samples was mixed with 50 µl of Steady Glo in luminometer tubes, the tubes incubated 10 minutes on ice then the light produced was read on a Turner TD 20/20 luminometer.

[2] = tested on: thermostable luciferase (Luc 146-1H2); assay: Residual thermostable luciferase activity after reaction with luciferin derivatives (Steady Glo); assay type: biochemical
Description: as §1, §2, §3

## O=C(O)[C@H]1CSC(c2nc3ccc(OCCCl)cc3s2)=N1 [L'in-CEE]
[1]; substrate 6.25 (L'in-BE: 6.26), + Co A & DTT, Time 0 min
  light readings from the reaction samples: 77.35
[1]; substrate 6.25 (L'in-BE: 6.26), + Co A & DTT, Time 20 min
  light readings from the reaction samples: 7.958
[1]; substrate 6.25 (L'in-BE: 6.26), + Co A & DTT, Time 40 min
  light readings from the reaction samples: 3.656
[1]; substrate 6.25 (L'in-BE: 6.26), + Co A & DTT, Time 60 min
  light readings from the reaction samples: 2.312
[1]; substrate 6.25 (L'in-BE: 6.26), + Co A & DTT, Time 90 min
  light readings from the reaction samples: 1.414
[1]; substrate 6.25 (L'in-BE: 6.26), + Co A & DTT, Time 120 min
  light readings from the reaction samples: 1.134
[1]; substrate 6.25 (L'in-BE: 6.26), + Co A, Time 0 min
  light readings from the reaction samples: 1829
[1]; substrate 6.25 (L'in-BE: 6.26), + Co A, Time 20 min
  light readings from the reaction samples: 114
[1]; substrate 6.25 (L'in-BE: 6.26), + Co A, Time 40 min
  light readings from the reaction samples: 57.82
[1]; substrate 6.25 (L'in-BE: 6.26), + Co A, Time 60 min
  light readings from the reaction samples: 37.53
[1]; substrate 6.25 (L'in-BE: 6.26), + Co A, Time 90 min
  light readings from the reaction samples: 24.66
[1]; substrate 6.25 (L'in-BE: 6.26), + Co A, Time 120 min
  light readings from the reaction samples: 17.02
[1]; substrate 6.25 (L'in-BE: 6.26), + DTT, Time 0 min
  light readings from the reaction samples: 72.52
[1]; substrate 6.25 (L'in-BE: 6.26), + DTT, Time 20 min
  light readings from the reaction samples: 5.903
[1]; substrate 6.25 (L'in-BE: 6.26), + DTT, Time 40 min
  light readings from the reaction samples: 3.073
[1]; substrate 6.25 (L'in-BE: 6.26), + DTT, Time 60 min
  light readings from the reaction samples: 2.089
[1]; substrate 6.25 (L'in-BE: 6.26), + DTT, Time 90 min
  light readings from the reaction samples: 1.431
[1]; substrate 6.25 (L'in-BE: 6.26), + DTT, Time 120 min
  light readings from the reaction samples: 1.125
[1]; substrate 6.25 (L'in-BE: 6.26), Alone, Time 0 min
  light readings from the reaction samples: 121
[1]; substrate 6.25 (L'in-BE: 6.26), Alone, Time 20 min
  light readings from the reaction samples: 5.884
[1]; substrate 6.25 (L'in-BE: 6.26), Alone, Time 40 min
  light readings from the reaction samples: 3.316
[1]; substrate 6.25 (L'in-BE: 6.26), Alone, Time 60 min
  light readings from the reaction samples: 2.352
[1]; substrate 6.25 (L'in-BE: 6.26), Alone, Time 90 min
  light readings from the reaction samples: 1.569
[1]; substrate 6.25 (L'in-BE: 6.26), Alone, Time 120 min
  light readings from the reaction samples: 1.154
[1]; substrate 25, + Co A & DTT, Time 0 min
  light readings from the reaction samples: 57.98
[1]; substrate 25, + Co A & DTT, Time 20 min
  light readings from the reaction samples: 5.721
[1]; substrate 25, + Co A & DTT, Time 40 min
  light readings from the reaction samples: 3.272
[1]; substrate 25, + Co A & DTT, Time 60 min
  light readings from the reaction samples: 2.192
[1]; substrate 25, + Co A & DTT, Time 90 min
  light readings from the reaction samples: 1.379
[1]; substrate 25, + Co A & DTT, Time 120 min
  light readings from the reaction samples: 1.174
[1]; substrate 25, + Co A, Time 0 min
  light readings from the reaction samples: 489.2
[1]; substrate 25, + Co A, Time 20 min
  light readings from the reaction samples: 45.45
[1]; substrate 25, + Co A, Time 40 min
  light readings from the reaction samples: 25.08
[1]; substrate 25, + Co A, Time 60 min
  light readings from the reaction samples: 16.96
[1]; substrate 25, + Co A, Time 90 min
  light readings from the reaction samples: 11.03
[1]; substrate 25, + Co A, Time 120 min
  light readings from the reaction samples: 7.309
[1]; substrate 25, + DTT, Time 0 min
  light readings from the reaction samples: 56.59
[1]; substrate 25, + DTT, Time 20 min
  light readings from the reaction samples: 3.761
[1]; substrate 25, + DTT, Time 40 min
  light readings from the reaction samples: 2.196
[1]; substrate 25, + DTT, Time 60 min
  light readings from the reaction samples: 1.668
[1]; substrate 25, + DTT, Time 90 min
  light readings from the reaction samples: 1.274
[1]; substrate 25, + DTT, Time 120 min
  light readings from the reaction samples: 1.157
[1]; substrate 25, Alone, Time 0 min
  light readings from the reaction samples: 59.87
[1]; substrate 25, Alone, Time 20 min
  light readings from the reaction samples: 3.176
[1]; substrate 25, Alone, Time 40 min
  light readings from the reaction samples: 1.919
[1]; substrate 25, Alone, Time 60 min
  light readings from the reaction samples: 1.305
[1]; substrate 25, Alone, Time 90 min
  light readings from the reaction samples: 1.178
[1]; substrate 25, Alone, Time 120 min
  light readings from the reaction samples: 1.03
[1]; substrate 100, + Co A & DTT, Time 0 min
  light readings from the reaction samples: 25.41
[1]; substrate 100, + Co A & DTT, Time 20 min
  light readings from the reaction samples: 3.278
[1]; substrate 100, + Co A & DTT, Time 40 min
  light readings from the reaction samples: 2.027
[1]; substrate 100, + Co A & DTT, Time 60 min
  light readings from the reaction samples: 1.666
[1]; substrate 100, + Co A & DTT, Time 90 min
  light readings from the reaction samples: 1.27
[1]; substrate 100, + Co A & DTT, Time 120 min
  light readings from the reaction samples: 1.157
[1]; substrate 100, + Co A, Time 0 min
  light readings from the reaction samples: 97.88
[1]; substrate 100, + Co A, Time 20 min
  light readings from the reaction samples: 10.3
[1]; substrate 100, + Co A, Time 40 min
  light readings from the reaction samples: 7.127
[1]; substrate 100, + Co A, Time 60 min
  light readings from the reaction samples: 5.562
[1]; substrate 100, + Co A, Time 90 min
  light readings from the reaction samples: 3.969
[1]; substrate 100, + Co A, Time 120 min
  light readings from the reaction samples: 2.845
[1]; substrate 100, + DTT, Time 0 min
  light readings from the reaction samples: 22.47
[1]; substrate 100, + DTT, Time 20 min
  light readings from the reaction samples: 2.233
[1]; substrate 100, + DTT, Time 40 min
  light readings from the reaction samples: 1.292
[1]; substrate 100, + DTT, Time 60 min
  light readings from the reaction samples: 1.164
[1]; substrate 100, + DTT, Time 90 min
  light readings from the reaction samples: 1.093
[1]; substrate 100, + DTT, Time 120 min
  light readings from the reaction samples: 0.958
[1]; substrate 100, Alone, Time 0 min
  light readings from the reaction samples: 20.46
[1]; substrate 100, Alone, Time 20 min
  light readings from the reaction samples: 1.18
[1]; substrate 100, Alone, Time 40 min
  light readings from the reaction samples: 0.868
[1]; substrate 100, Alone, Time 60 min
  light readings from the reaction samples: 0.788
[1]; substrate 100, Alone, Time 90 min
  light readings from the reaction samples: 0.627
[1]; substrate 100, Alone, Time 120 min
  light readings from the reaction samples: 0.544
[2]; Substrate 6.25, + Co A & DTT, Time Sample Taken 0 min
  light values obtained upon addition of the diluted reaction samples into Steady Glo reagent: 1836
[2]; Substrate 6.25, + Co A & DTT, Time Sample Taken 60 min
  light values obtained upon addition of the diluted reaction samples into Steady Glo reagent: 1625
[2]; Substrate 6.25, + Co A & DTT, Time Sample Taken 120 min
  light values obtained upon addition of the diluted reaction samples into Steady Glo reagent: 1622
[2]; Substrate 6.25, + Co A, Time Sample Taken 0 min
  light values obtained upon addition of the diluted reaction samples into Steady Glo reagent: 1647
[2]; Substrate 6.25, + Co A, Time Sample Taken 60 min
  light values obtained upon addition of the diluted reaction samples into Steady Glo reagent: 976.8
[2]; Substrate 6.25, + Co A, Time Sample Taken 120 min
  light values obtained upon addition of the diluted reaction samples into Steady Glo reagent: 921.4
[2]; Substrate 6.25, + DTT, Time Sample Taken 0 min
  light values obtained upon addition of the diluted reaction samples into Steady Glo reagent: 1631
[2]; Substrate 6.25, + DTT, Time Sample Taken 60 min
  light values obtained upon addition of the diluted reaction samples into Steady Glo reagent: 1544
[2]; Substrate 6.25, + DTT, Time Sample Taken 120 min
  light values obtained upon addition of the diluted reaction samples into Steady Glo reagent: 1695
[2]; Substrate 6.25, Alone, Time Sample Taken 0 min
  light values obtained upon addition of the diluted reaction samples into Steady Glo reagent: 1402
[2]; Substrate 6.25, Alone, Time Sample Taken 60 min
  light values obtained upon addition of the diluted reaction samples into Steady Glo reagent: 1158
[2]; Substrate 6.25, Alone, Time Sample Taken 120 min
  light values obtained upon addition of the diluted reaction samples into Steady Glo reagent: 1073
[2]; Substrate 25, + Co A & DTT, Time Sample Taken 0 min
  light values obtained upon addition of the diluted reaction samples into Steady Glo reagent: 529.6
[2]; Substrate 25, + Co A & DTT, Time Sample Taken 60 min
  light values obtained upon addition of the diluted reaction samples into Steady Glo reagent: 1268
[2]; Substrate 25, + Co A & DTT, Time Sample Taken 120 min
  light values obtained upon addition of the diluted reaction samples into Steady Glo reagent: 1329
[2]; Substrate 25, + Co A, Time Sample Taken 0 min
  light values obtained upon addition of the diluted reaction samples into Steady Glo reagent: 1547
[2]; Substrate 25, + Co A, Time Sample Taken 60 min
  light values obtained upon addition of the diluted reaction samples into Steady Glo reagent: 777.5
[2]; Substrate 25, + Co A, Time Sample Taken 120 min
  light values obtained upon addition of the diluted reaction samples into Steady Glo reagent: 588.7
[2]; Substrate 25, + DTT, Time Sample Taken 0 min
  light values obtained upon addition of the diluted reaction samples into Steady Glo reagent: 1116
[2]; Substrate 25, + DTT, Time Sample Taken 60 min
  light values obtained upon addition of the diluted reaction samples into Steady Glo reagent: 1372
[2]; Substrate 25, + DTT, Time Sample Taken 120 min
  light values obtained upon addition of the diluted reaction samples into Steady Glo reagent: 1393
[2]; Substrate 25, Alone, Time Sample Taken 0 min
  light values obtained upon addition of the diluted reaction samples into Steady Glo reagent: 1345
[2]; Substrate 25, Alone, Time Sample Taken 60 min
  light values obtained upon addition of the diluted reaction samples into Steady Glo reagent: 973.4
[2]; Substrate 25, Alone, Time Sample Taken 120 min
  light values obtained upon addition of the diluted reaction samples into Steady Glo reagent: 860.3
